In experiment [1] the target is T1, Tyrosine-protein phosphatase non-receptor type 1 (Homo sapiens, UniProt P18031).
T1 sequence (P18031 whole entry): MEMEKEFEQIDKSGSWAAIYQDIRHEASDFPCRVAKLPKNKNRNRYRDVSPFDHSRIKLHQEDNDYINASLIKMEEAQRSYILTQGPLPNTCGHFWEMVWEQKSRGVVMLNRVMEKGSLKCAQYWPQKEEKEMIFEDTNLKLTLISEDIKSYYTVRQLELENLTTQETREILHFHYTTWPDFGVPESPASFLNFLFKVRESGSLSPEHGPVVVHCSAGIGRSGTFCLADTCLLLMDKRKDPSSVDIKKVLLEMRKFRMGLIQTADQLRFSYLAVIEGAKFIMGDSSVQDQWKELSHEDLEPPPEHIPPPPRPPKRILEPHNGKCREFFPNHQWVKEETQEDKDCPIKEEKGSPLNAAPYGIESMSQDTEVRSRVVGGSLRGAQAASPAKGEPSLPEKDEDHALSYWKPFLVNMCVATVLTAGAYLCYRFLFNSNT
In words: Inhibition of PTP1B expressed in Sf9 cells.

Experiment [2] addresses T2, Tyrosine-protein phosphatase non-receptor type 1 (Homo sapiens) (UniProt P18031).
T2 sequence (whole entry): T1 sequence (P18031 whole entry)
The experiment is described as follows: Inhibition of PTP1B expressed in Sf9 cells at 400 uM.

Experiment [3] deals with T1, Tyrosine-protein phosphatase non-receptor type 1. The experiment is described as follows: Inhibition of PTP1B in a cell-free assay.

Each structure is given as a SMILES string. Activity calls are given as the source filed them. No cut-off for these calls is given here.

With `COC(=O)c1c(O)cccc1OCCOc1ccc2c(c1)c(C(O)(C(=O)O)C(F)(F)F)cn2COCC[Si](C)(C)C` (stereo not given), half-maximal inhibition in experiment [1] (IC50) was put at 123 µM.
For `COCn1cc(C(O)(C(=O)O)C(F)(F)F)c2ccc(OCc3ccccc3)cc21` (stereo not given), in experiment [1], the IC50 (in general, the point on the concentration scale where inhibition reaches its midpoint) was found to be 382 µM.
As to `COCn1cc(C(O)(C(=O)O)C(F)(F)F)c2ccccc21` (stereo not given), the result in experiment [2] was inactive.
`CCCCCOc1ccc(C(O)(C(=O)O)C(F)(F)F)cc1OCCc1sc(-c2ccc(Cl)cc2)nc1C` (stereo not given) returned a half-inhibitory concentration (IC50) in experiment [1] of 12 µM.
As for `COCn1cc(C(O)(C(=O)O)C(F)(F)F)c2cccc(OCc3ccccc3)c21` (stereo not given), in experiment [1], the half-maximal inhibitory concentration (IC50) came out at 176 µM.
On the same count and under the same terms, the value for `Cc1nc(-c2ccc(Cl)cc2)sc1CCOc1cc(C(O)(C(=O)O)C(F)(F)F)ccc1O` (stereo not given) was 105 µM; that for `O=C(c1ccccc1)C(c1ccccc1)c1ccc(C(F)(F)P(=O)(O)O)cc1` (stereo not given) was 1.2 µM.
Still for that read-out and setting: the value for `Cc1nc(-c2ccc(Cl)cc2)sc1CCOc1cccc(C(O)(C(=O)O)C(F)(F)F)c1` (stereo not given) was 37 µM.
On the same count and under the same terms, for `Cc1nc(-c2ccc(Cl)cc2)sc1CCOc1cc(C(O)(C(=O)O)C(F)(F)F)ccc1OCC(=O)O` (stereo not given) the value was 500 µM.
Regarding `COCn1cc(C(O)(C(=O)O)C(F)(F)F)c2cc(OCc3ccccc3)ccc21` (stereo not given), in experiment [2], the result was inactive.
Consider `Cc1nc(-c2ccc(Cl)cc2)sc1CCOc1ccc2c(c1)c(C(O)(C(=O)O)C(F)(F)F)cn2COCC[Si](C)(C)C` (stereo not given), for which the concentration for half-maximal inhibition (IC50) in experiment [1] turned out to be 32 µM.
In the case of `Cc1nc(-c2ccc(Cl)cc2)sc1CCOc1cc(C(O)(C(=O)O)C(F)(F)F)ccc1OCc1ccccc1` (stereo not given), the 50% inhibitory concentration (IC50) in experiment [1] amounted to 3.2 µM; in experiment [3], 3 µM.
Molecule `Cc1nc(-c2ccc(Cl)cc2)sc1CCOc1ccc2c(c1)c(C(O)(C(=O)O)C(F)(F)F)cn2Cc1ccccc1` (stereo not given) showed a half-maximal inhibitory concentration (IC50) in experiment [1] of 27 µM.
As to `COCn1cc(C(O)(C(=O)O)C(F)(F)F)c2cc(OCCc3sc(-c4ccc(Cl)cc4)nc3C)ccc21` (stereo not given), it took 59 µM to reach half-maximal inhibition in experiment [1] (IC50).
The same measure, in the same setting: for `COC(=O)c1c(O)cccc1OC/C=C/c1ccc(F)c(-c2cc(C(=O)O)no2)c1` the value was 110 µM.
Same read-out and setting: for `Cc1nc(-c2ccc(Cl)cc2)sc1CCOc1cc(C(O)(C(=O)O)C(F)(F)F)ccc1OCc1ccc(F)cc1` (stereo not given) the value was 23 µM; for `Cc1nc(-c2ccc(Cl)cc2)sc1CCOc1cc(C(O)(C(=O)O)C(F)(F)F)ccc1OCc1ccncc1` (stereo not given), 36 µM.
For `COc1ccc(COc2ccc(C(O)(C(=O)O)C(F)(F)F)cc2OCCc2sc(-c3ccc(Cl)cc3)nc2C)cc1` (stereo not given), the half-inhibitory concentration (IC50) in experiment [1] came out at 12 µM.
Same read-out and setting: the value for `Cc1nc(-c2ccc(Cl)cc2)sc1CCOc1cc(C(O)(C(=O)O)C(F)(F)F)ccc1OCCc1ccccc1` (stereo not given) was 10 µM.

Source of the values: ChEMBL document CHEMBL1140554, “2-Aryl-3,3,3-trifluoro-2-hydroxypropionic acids: a new class of protein tyrosine phosphatase 1B inhibitors” (Bioorg Med Chem Lett, 2007).
